{
  "source": "patent US20060025449A1",
  "about": "“Use of N-substituted imino sugars for appetite suppression” (priority 2004, published 2006)",
  "key": {"[1]": {"test_system": "C57B1/6 mice", "format": "in vivo, mouse", "experimental": "Growth rates of control and NB-DNJ-treated mice were analysed statistically by univariate analysis of variance (ANOVA) using SPSS software to compare slopes of growth from 54 to 174 days of age.\nThe effect of NB-DNJ on lean body mass growth was also assessed by measuring tibia lengths in a group of 20 control mice at one year old, 5 mice at 2 years old and two mice 19.5 months old after 18 months on 2400 mg/kg/day. Tibias were dissected from both hind-limbs then boiled in distilled water for 20 min to clean the bone of remaining connective tissue and muscle. Tibia length was then measured using calipers.\nIt can also be seen (FIG. 4) that the control mice lost weight over the first two weeks of treatment and then started to grow again, and continued to gain weight for the remainder of the study. […] Growth in both groups of mice as measured by the gradient of the line is similar and the data were analysed by univariate analysis of variance (ANOVA) to compare the slopes of growth statistically.\nTo establish further, whether NB-DNJ has an effect on lean growth of mice tibia lengths were measured in a large (n=20) group of control mice at one year of age, a smaller group (n=5) at two years of age and a comparison was made with two mice treated with NB-DNJ for 18 months."}, "[2]": {"test_system": "C57B1/6 mice", "assay": "Effect of imino sugars admixed with diet on growth of normal control mice", "format": "in vivo, mouse", "experimental": "Control C57B1/6 and C57BL/6O1aHsd-Lep ob mice were obtained from Harlan, UK at five weeks of age. The mice were housed under standard non-sterile conditions and fed a diet of mouse chow pelleted or expanded ground RM1 diet (SDS Ltd, Witham, Essex) with water available ad libitum. For dietary treatment of the mice with NB-DNJ or NB-DGJ, the diet and compound were admixed thoroughly as dry solids, stored at room temperature and used within 7 days. Unless indicated otherwise, mice were treated with a dose of 2400 mg/kg body weight per day, assuming an intake of around 5 g diet/day. Mice were maintained on diet with or without compound for up to six months of age and were weighed at regular intervals during the course of the experiment (see figure legends for group sizes and further experimental details). To study the effect of compound on obese mice, three groups (n=5) of ob/ob mice were monitored from five weeks of age. One group acted as control and were fed ground RM1 diet. At 6 weeks of age, the second group was started on NB-DNJ in the diet, whilst the third group started drug treatment at 12 weeks of age. All mice were then monitored for up to six months of age. […] In the first week of treatment, mice with NB-DNJ in their diet lost about 10% of their total body mass. Over the course of the following weeks, their weight stabilises. By 5 weeks of treatment they weighed 25% less than the controls. They then started to gain weight. However, after 10 weeks they remained 20% less in mass when compared with the age and sex-matched control group."}, "[3]": {"test_system": "C57B1/6 mice", "conditions": "Platt et al.; cited from earlier work"}, "[4]": {"test_system": "ob/ob mice", "assay": "Long-term dietary dosing of obese mice, growth curves", "format": "in vivo, mouse", "conditions": "2400 mg/kg/d in diet", "experimental": "Control C57B1/6 and C57BL/6O1aHsd-Lep ob mice were obtained from Harlan, UK at five weeks of age. The mice were housed under standard non-sterile conditions and fed a diet of mouse chow pelleted or expanded ground RM1 diet (SDS Ltd, Witham, Essex) with water available ad libitum. For dietary treatment of the mice with NB-DNJ or NB-DGJ, the diet and compound were admixed thoroughly as dry solids, stored at room temperature and used within 7 days. Unless indicated otherwise, mice were treated with a dose of 2400 mg/kg body weight per day, assuming an intake of around 5 g diet/day. Mice were maintained on diet with or without compound for up to six months of age and were weighed at regular intervals during the course of the experiment (see figure legends for group sizes and further experimental details). To study the effect of compound on obese mice, three groups (n=5) of ob/ob mice were monitored from five weeks of age. One group acted as control and were fed ground RM1 diet. […] All mice were then monitored for up to six months of age. Leptin deficient ob/ob mice are widely used as an animal model of obesity and weigh more than twice as much as a normal mouse, even when fed the same diet. The mice have as much as a five-fold increase in fat content, are hyperphagic, hypothermic, have decreased energy expenditure and are unusually efficient at converting metabolic fuels into fat. Friedman & Halas, Nature 395, 763-70 (1998). These mice were used to investigate the effect of NB-DNJ. […] As NB-DNJ was so effective at reducing white adipose tissue in normal mice, a study was performed to discover if a similar effect would occur in obese mice. […] The control obese mice grew from just over 20 g at five weeks old to about 60 g at six months of age whereas the lean controls had reached about 27 g at the same age. The group of obese mice started on NB-DNJ treatment at 7 weeks old grew at a very much reduced rate and weighed 35 g after six months (40% less than their control littermates). […]"}, "[5]": {"test_system": "control lean mice", "assay": "ICV mini-pump implants, long-term intracerebro-ventricular delivery", "format": "in vivo, mouse", "experimental": "FIG. 11. Control lean mice (n=5 in each group) had icv minipumps (50 mM imino sugar) implanted. Body weight was the monitored at regular intervals over three weeks. See example 7 for further experimental details. The effect of long-term intracerebro-ventricular delivery of imino sugars was determined by the implantation of Alzet mini-osmotic pumps (model 2004, DURECT Corporation, CA, USA) together with the brain infusion kit II which features a high stability low profile cannula. The mini-pumps were loaded with 0.24 ml imino sugar or saline vehicle. The indwelling 28 gauge stainless steel cannula was cut to a length of 2.25 mm. Mice were anaesthetised as for the ICV injections and underwent similar surgical procedures throughout. After drilling a small hole in the cranium at the midline, 2 mm posterior to Bregma, the mini-pump was positioned subcutaneously in the animal's flank and the cannula was implanted. This position and depth ensured delivery to the third cerebral ventricle. The implant was secured to the cranium using VetBond acrylic suture fluid, which was also used to close the surgical wound. The whole procedure lasted less than 9 minutes and mice were fully conscious and recovered within three minutes. For concentration of imino sugar in mini-pumps see figure legends."}, "[6]": {"conditions": "ICV mini-pump 500 mM, first 24 hours"}},
  "data": [
    {"smiles": "CCCCN1C[C@H](O)[C@@H](O)[C@H](O)[C@H]1CO", "note": "[NB-DNJ, N-butyldeoxynojirimycin]", "values": [
      {"measurement": "weighing less than control counterparts after original weight loss", "setting": "[1]; 2400 mg/kg/d in diet", "value": 4, "unit": "g"},
      {"measurement": "lean mass", "setting": "[1]; admixed with diet, lean mice", "value": "did not have any reduction in lean mass"},
      {"measurement": "tibia lengths", "setting": "[1]; two mice treated for 18 months, 2400 mg/kg/day", "value": "within the normal range"},
      {"measurement": "loss of total body mass", "setting": "[2]; 2400 mg/kg/day in diet from 6 weeks of age, first week of treatment", "value": "about 10%"},
      {"measurement": "less in mass compared with age and sex-matched control group", "setting": "[2]; 2400 mg/kg/day in diet, after 10 weeks", "value": 20, "unit": "%"},
      {"measurement": "weighed less than the controls", "setting": "[2]; 2400 mg/kg/day in diet, by 5 weeks of treatment", "value": 25, "unit": "%"},
      {"measurement": "dose at which a well-defined effect on total body weight has been seen", "setting": "[3]", "value": "≥ 600", "unit": "mg/kg/day"},
      {"measurement": "body weight of obese mice after six months", "setting": "[4]; started at 7 weeks old", "value": 35, "unit": "g"},
      {"measurement": "weight less than control littermates", "setting": "[4]; started at 7 weeks old, after six months", "value": 40, "unit": "%"},
      {"measurement": "weight at which obese mice stabilised after losing weight", "setting": "[4]; started at 12 weeks old, over three months", "value": "less than 40 g"},
      {"measurement": "reduction in food intake compared to the controls", "setting": "[5]; ICV mini-pump 50 mM, NB-DGJ as control", "value": 6, "unit": "%"},
      {"measurement": "reduction of body weight", "setting": "[5]; ICV mini-pump 50 mM, after 3 weeks", "value": 5, "unit": "%"},
      {"measurement": "effect on dietary intake", "setting": "[5]; [6]", "value": "ate even less"},
      {"measurement": "effect on weight change", "setting": "[5]; [6]", "value": "lost a little more weight"}
    ]}
  ]
}
